How the values were obtained:
[1] = Human Phase 1 clinical study, plasma epinephrine pharmacokinetics and bioavailability; format: in vivo; conditions: for Tmax: read-out: median Tmax (converted)
Description: Twelve human subjects participated in the open-label, single sequence crossover study. […] Nor did the subject participate in Treatment D.
The dry powder formulation was administered via intranasal instillation once using a nasal device (APTAR). The IM solution and materials were supplied by the study site and prepared according to the local procedures. The study drug was administered at approximately the same time on each treatment day. There was a washout period of 20 days between the nasal doses administered as treatment A and treatment D. The subjects were admitted to the clinical site the day before each treatment administration and remained on site until at least 8 hours post-dose, or when applicable, until 24 hours post-dose of the specific treatment period. The study drug was administered after at least a 10 hour fast. A standardized meal was provided approximately 4 hours after dosing.
Blood samples were collected prior to dosing at 60, 30, and 0 minutes before dosing, and after dosing at 2, 5, 7, 10, 15, 20, 25, 30, 45, 60, 90, 120, 180, 240, and 360 minutes. […] The calibration curve range of the bioanalytical method was from 10 to 10000 pg/mL. Recovery was >75% and freeze-thaw, short-term and long-term stability (584 days) were all shown to be acceptable; the analyte was stable under all conditions tested.
Noncompartmental analysis was performed on individual human subject plasma concentration-time data using nominal doses and actual blood sampling times. […] Baseline correction was accomplished using the average of the measured concentrations at nominal times of −60, −30, and 0 minutes before dosing.
Pharmacokinetic analyses were performed using the standard PK analysis software package PHOENIX® WinNonlin version 8.4.
The PK population consists of all human subjects who provided sufficient PK samples for a given treatment to allow for adequate determination of PK parameters of interest.

[2] = Study 101, plasma epinephrine pharmacokinetics; format: in vivo; conditions: human, im
Description: Each patient was provided each treatment of the trial with 72-hour washout periods between each treatment, beginning with a 3.5 mg intranasal dose, followed by a 0.3 mg intramuscular dose, followed by a 0.5 mg intramuscular dose, and concluding with a 5.5 mg intranasal dose, with a safety follow-up performed 3 to 5 days after the final dose was administered. The primary endpoints of the study were pharmacokinetic measurements and assessments of comparative bioavailability, while the secondary endpoints were safety concerns and pharmacodynamic assessments.

## CNC[C@H](O)c1ccc(O)c(O)c1 [Epinephrine IM, epinephrine]
[1]; 0.3 mg IM, read-out: mean baseline-corrected Cmax
  Cmax: 0.184 ng/mL
[1]; 0.3 mg IM
  Tmax: 48 min
[1]; 0.5 mg IM
  Tmax: 48 min
[2]; 0.3 mg, 0.3 mg IM, read-out: Tmax (Mean) (converted)
  Tmax: 41.4 min
[2]; 0.3 mg, 0.3 mg IM, read-out: Tmax (Median) (converted)
  Tmax: 48 min
[2]; 0.5 mg, 0.5 mg IM, read-out: Tmax (Mean) (converted)
  Tmax: 40.9 min
[2]; 0.5 mg, 0.5 mg IM, read-out: Tmax (Median) (converted)
  Tmax: 48 min

Reference: US12605517B1 (Belhaven BioPharma Inc., priority 2024, dated 2026)
